One compound from patent US11384115B2, “Nuclear sulfated oxysterol, potent regulator of lipid homeostasis, for therapy of hypercholesterolemia, hypertriglycerides, fatty liver diseases, and atherosclerosis” (Virginia Commonwealth University, priority 2004, dated 2022) can be followed below.

Series [1] relates to ABCA1, ABCG1, ABCG5, ABCG8 gene expression. The series is described as follows: LXR targeting gene expression by real time RT-PCR in primary hepatocytes. In kind it is cell-based, mouse. The source says:
FIG. 10. ABCA1 (A1), ABCG1 (G1), LDL receptor (LDLR), ABCG5 (G5), and ABCG8 (G8) gene expression in primary mouse hepatocytes following addition of the purified nuclear oxysterol. At 24 hrs following the addition, cells were harvested and total RNAs were extracted and gene expression levels were quantitated by real time RT-PCR. β-Actin mRNA was used as total mRNA internal standard. The gene expression levels in cells […] were compared with those in control cells. Ten μg of total RNA was used for cDNA preparation (RT) and 10 ng of cDNA was used for PCR. The expression levels were normalized to β-actin.
Preliminary experiments have shown that the purified nuclear oxysterol up-regulates bile acid synthesis. To further investigate the mechanism of this activity, the effect of purified 5-cholesten-3β, 25-diol 3-sulphate on gene expression of LXR-targeted cholesterol transport proteins ABCA1, ABCG1, ABCG5, ABCG8, and LDLR was investigated. Purified nuclear sulfated oxysterol was added to primary hepatocytes in culture, and mRNA levels of the transport proteins were quantitated by real time RT-PCR. The primer sets and TagMan probes for detection of mRNA levels were purchased from AB Applied Biosystem (Foster City, Calif.) and the reactions were performed on an MJ Research DNA Engine Opticon instrument.
For orientation: Real-time PCR tracks product formation cycle by cycle.

Another series deals with HMG CoA reductase. Description: Western blot of HMG CoA reductase protein in HepG2 cells. In kind it is cell-based, human. As for the experimental part:
FIGS. 15A-15D. 25HC3S regulates HMGR mRNA Expression. Real time RT-PCR analysis of HMG CoA R reductase expression in HepG2 cells (FIGS. 15A and 15B). Western blot analysis of protein levels of HMG CoA reductase (FIG. 15C). Total RNAs were purified using SV Total RNA Isolation Kit (Promega) from the cells treated with 25HC3S at concentrations as indicated (FIG. 15A) and incubation at 12 μM of 25HC3S for the different times (effect on HMG CoA mRNA) (FIG. 15B). Two μg of total RNA was used for cDNA preparation (RT) and performed as manufacture recommended (Invitrogen), and 10 ng of cDNA was used for real time PCR. The expression levels were normalized to GAPDH. The bands of HMG CoA reductase (HMGR) were quantitated by laser density scanning. Each value represents mean of three experiments±standard derivation.
Microsomal proteins (80 μg) were separated on a 7.5% SDS-polyacrylamide denaturing gel according to the method of Laemmli (14). Following SDS-PAGE (Hoefer Vertical Slab Gel Unit; Heofer, San Francisco, Calif.), proteins were electrophoretically transferred overnight (4° C.) to Immobilon-P membranes using a Hoefer Trans Blot Electrophoretic Transfer cell. The membranes were then blocked for 90 minutes (25° C.) in blocking buffer (PBS, pH 7.4, 0.1% Tween, 5% non-fat dry milk). […] Protein bands were detected using the Amersham ECL plus Kit.

The subject of a further series is NFκB. The series is described as follows: NFκB dependent reporter gene-Luc assay in H441 cells, TNFα-induced. In kind it is cell-based, human. As for the experimental part:
A, THP-1 macrophages were treated with 25HC3S or 25HC for 24 hrs followed by addition or no addition of TNFα for another 3 hrs. The nuclear NFκB levels were analyzed by Western blot. The data represent one typical result out of three experiments. […] The reporter gene expression was induced by incubating with 10 ng/ml of TNFα for 3 hrs. The left figure represents cells transfected with pNFκB dependent reporter gene-Luc plasmid alone; the right figure, represents cells co-transfected with PPARγ expression plasmid.
H441 cells were seeded in 96-well plates. When cell density reached 90-95%, the cells were transfected with an expression plasmid as indicated using a lipid-based FuGENE HD transfection reagent according to the manufacture (Roche, Indianapolis, Ind.). A synthetic renilla luciferase reporter, phrG-TK (Promega, Wisconsin, Wis.), was used as a luciferase internal standard. For PPRE reporter gene assay, 50 ng of pGL3-PPRE-acyl-CoA oxidase luciferase reporter, 50 ng of expression plasmid pCMX-PPARγ, and 50 ng of phrG-TK vector (internal standard) were cotransfected as per the manufacture's instruction. […] Luciferase activities were determined using the Dual-Glo Luciferase Assay System according to the manufacturer's protocol (Promega, Wisconsin, Wis.). The amount of luciferase activity was measured using a TopCount NXT Microplate Scintillation and Luminescence Counter (Packard, Meriden, Conn.) and normalized to the amount of phG-TK luciferase activity. Transfections were carried out in triplicate for each sample, and each experiment was repeated three times.
(A reporter such as luciferase makes a cellular process visible.)

Series [2] can be described thus: Liver triglycerides (Sudan IV staining) in mice on normal or high cholesterol diet. Format: in vivo. The settings on record: normal or high cholesterol diet for 8 days. The source says:
To test the effect of diet on cholesterol levels, mice were provided with either a normal or high cholesterol diet for 8 days, and treated with the nuclear oxysterol as described above.

Series [3] is described as follows: Water solubility (statement). Format: physicochemical.
Series [4] in a line: Single peritoneal injection in mice, serum lipids and serum enzymes. In kind it is in vivo. As for the experimental part: Administration to female mice (20-25 g weight) was by peritoneal injection once with or without 72 μg of the nuclear oxysterol in 100 μl of 0.9% NaCl containing 3 μl of ethanol. Twelve hrs following the injection, blood was harvested for analysis of triglycerides and cholesterol.

[5] abbreviates: primary hepatocytes in culture, mRNA.
The mark [6] stands for this setting: female mice, 72 μg peritoneal injection once, 12 hrs.
Where [7] appears, read: in vivo, only one administration.

Read-outs that look alike come from different tables or passages of the source.

With `C[C@H](CCCC(C)(C)O)[C@H]1CC[C@H]2[C@@H]3CC=C4C[C@@H](OS(=O)(=O)O)CC[C@]4(C)[C@H]3CC[C@]12C` [25HC3S, 5-cholesten-3β, 25-diol 3-sulphate], in series [1] (setting [5]), the “increased expression of ABCA1” value is given as 2 fold, the “increased expression of ABCG5” value is on record as 1.6 fold and the “increased expression of ABCG8” value turned out to be 3 fold. The “expression of ABCG1” value in series [1] (primary hepatocytes, compared with control cells) is on record as “did not change”. In addition, the “decrease of HMG CoA reductase protein level” value with HMG CoA reductase is on record as 50%. The “TNFα induction of NFκB dependent reporter gene expression” value with NFκB (H441, absence of PPARγ expression plasmid) was “failed to suppress”. In the series with NFκB (H441 co-transfected with PPARγ expression plasmid), the “reduction of TNFα induction of NFκB dependent reporter gene expression” value turned out to be 50%. Further, the “suppression of NFκB reporter induction in the presence of PPARγ antagonist” value in the series with NFκB (H441 co-transfected with PPARγ, T0070907) is listed as “the suppression was blunted”. In series [2], the “triglyceride levels in liver tissues” value is on record as “significantly decreased”. For the same compound, the water solubility result in series [3] was “water soluble”. The water solubility result in series [3] (listed as 25-hydroxycholesterol 3-sulfate) is given as “water-soluble”. Also, in series [4] (female mice, 72 μg peritoneal injection once), the “activities of alkaline phosphotase, SGPT and SGOT in sera” value was “did not increase”. Moreover, in series [4] (setting [6]), the “decrease of cholesterol levels in serum” value was 15% and the “decrease of triglycerides in serum” value was 40%. Moreover, in series [4] (setting [7]), the HDL entry was “significantly increases”; the decrease of serum cholesterol and triglyceride stood at 20%.
